Tests used:
Type in all cases: in vivo
corn (Zea mays) [1] = experiment: Test C greenhouse herbicide test, pre- and postemergence
Method in brief: (§1)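 Visual 0–100 injury score (100 = complete control) taken against untreated controls after 13–15 d in greenhouse. Test chemicals, formulated in solvent plus surfactant, applied preemergence to seeds in loam–sand soil or postemergence to 1- to 4-leaf plants (2–18 cm).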

[2] = test system: waterhemp (common waterhemp, Amaranthus rudis); experiment: as above
Method in brief: as §1

[3] = test system: velvetleaf (Abutilon theophrasti); experiment: as above
Method in brief: as §1

soybean (Glycine max) = experiment: as above
Method in brief: as §1

[4] = test system: pigweed (Amaranthus retroflexus); experiment: as above
Method in brief: as §1

[5] = test system: nutsedge, yellow (yellow nutsedge, Cyperus esculentus); experiment: as above
Method in brief: as §1

[6] = test system: blackgrass (Alopecurus myosuroides); experiment: as above
Method in brief: as §1

[7] = test system: ryegrass, Italian (Italian ryegrass, Lolium multiflorum); experiment: Test A greenhouse herbicide test, pre- and postemergence
Method in brief: (§2)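 Visual injury ratings, 0 (no effect) to 100 (complete control), versus untreated plants after roughly 10 d in a greenhouse. Compounds, formulated in a surfactant-containing non-phytotoxic solvent, were sprayed on loam–sand soil after sowing (pre) or on one- to two-leaf plants 2–10 cm tall (post).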

corn (Zea mays) [8] = experiment: as above; conditions: Postemergence
Method in brief: as §2

[9] = test system: foxtail, giant (giant foxtail, Setaria faberii); experiment: as above
Method in brief: as §2

[10] = test system: wheat (Triticum aestivum); experiment: as above; conditions: Postemergence
Method in brief: as §2

[11] = Postemergence, 31 g ai/ha, 0 to 100 scale (0 no effect, 100 complete control)
[12] = Postemergence, 125 g ai/ha, scale 0 to 100, 0 is no effect, 100 is complete control
[13] = Postemergence, 250 g ai/ha, scale 0 to 100, 0 no effect, 100 complete control, 13 to 15 d
[14] = Preemergence, 31 g ai/ha, scale 0 to 100, 0 is no effect, 100 is complete control
[15] = Preemergence, 62 g ai/ha, scale 0 to 100, 0 is no effect, 100 is complete control
[16] = Preemergence, 125 g ai/ha, scale 0 to 100, 0 is no effect, 100 is complete control
[17] = Preemergence, 250 g ai/ha, scale 0 to 100, 0 no effect, 100 complete control
[18] = postemergence, 62 g ai/ha, scale 0 to 100, 0 no effect, 100 complete control
[19] = Postemergence, 125 g ai/ha, 0 to 100 scale where 0 is no effect and 100 is complete control
[20] = Postemergence, 500 g ai/ha, 0 to 100 scale, 0 is no effect, 100 is complete control
[21] = Preemergence, 125 g ai/ha, 0 to 100 scale where 0 is no effect and 100 is complete control
[22] = Preemergence, 500 g ai/ha, 0 to 100 scale where 0 is no effect and 100 is complete control
[23] = 125 g ai/ha, 0 to 100 scale where 0 is no effect and 100 is complete control
[24] = 500 g ai/ha, 0 to 100 scale, 0 is no effect, 100 is complete control
[25] = Postemergence, 500 g ai/ha, visual rating after approx. 10 d, 0 to 100 scale (0 no effect, 100 complete control)
[26] = 500 g ai/ha, visual rating after approx. 10 d, 0 to 100 scale (0 no effect, 100 complete control)

Cc1nn(C)c(=O)c(-c2ccc(Br)c3ccccc23)c1O [Compound 75]
Corn plant response rating (corn (Zea mays) [1]; [11]): 5 | Plant response rating, Corn (corn (Zea mays) [1]; [12]): 10 | Plant response rating, Corn (corn (Zea mays) [1]; [13]): 10 | Plant response rating, Corn (corn (Zea mays) [1]; [14]): 0 | Plant response rating, Corn (corn (Zea mays) [1]; [15]): 5 | Plant response rating, Corn (corn (Zea mays) [1]; [16]): 0 | Corn plant response rating (corn (Zea mays) [1]; [17]): 10 | Corn plant response rating (corn (Zea mays) [1]; [18]): 5 | Waterhemp plant response rating [2, 11]: 100 | Plant response rating, Waterhemp [2, 12]: 100 | Plant response rating, Waterhemp [2, 13]: 100 | Plant response rating, Waterhemp [2, 14]: 100 | Plant response rating, Waterhemp [2, 15]: 100 | Plant response rating, Waterhemp [2, 16]: 100 | Waterhemp plant response rating [2, 17]: 100 | Waterhemp plant response rating [2, 18]: 100 | Velvetleaf plant response rating [3, 11]: 70 | Plant response rating, Velvetleaf [3, 12]: 85 | Plant response rating, Velvetleaf [3, 13]: 85 | Plant response rating, Velvetleaf [3, 14]: 35 | Plant response rating, Velvetleaf [3, 15]: 85 | Plant response rating, Velvetleaf [3, 16]: 90 | Velvetleaf plant response rating [3, 17]: 98 | Velvetleaf plant response rating [3, 18]: 50 | Soybean plant response rating (soybean (Glycine max); [11]): 20 | Plant response rating, Soybean (soybean (Glycine max); [12]): 35 | Plant response rating, Soybean (soybean (Glycine max); [13]): 10 | Plant response rating, Soybean (soybean (Glycine max); [14]): 0 | Plant response rating, Soybean (soybean (Glycine max); [15]): 20 | Plant response rating, Soybean (soybean (Glycine max); [16]): 45 | Soybean plant response rating (soybean (Glycine max); [17]): 55 | Soybean plant response rating (soybean (Glycine max); [18]): 35 | Pigweed plant response rating [4, 11]: 85 | Plant response rating, Pigweed [4, 12]: 100 | Plant response rating, Pigweed [4, 13]: 98 | Plant response rating, Pigweed [4, 14]: 85 | Plant response rating, Pigweed [4, 15]: 100 | Plant response rating, Pigweed [4, 16]: 100 | Pigweed plant response rating [4, 17]: 100 | Pigweed plant response rating [4, 18]: 95 | Nutsedge, Yellow plant response rating [5, 11]: 25 | Plant response rating, Nutsedge, Yellow [5, 12]: 50 | Plant response rating, Nutsedge, Yellow [5, 13]: 70 | Plant response rating, Nutsedge, Yellow [5, 14]: 15 | Plant response rating, Nutsedge, Yellow [5, 15]: 40 | Plant response rating, Nutsedge, Yellow [5, 16]: 65 | Nutsedge, Yellow plant response rating [5, 17]: 75 | Nutsedge, Yellow plant response rating [5, 18]: 20 | Blackgrass plant response rating [6, 11]: 5 | Plant response rating, Blackgrass [6, 12]: 20 | Plant response rating, Blackgrass [6, 13]: 35 | Plant response rating, Blackgrass [6, 14]: 20 | Plant response rating, Blackgrass [6, 15]: 30 | Plant response rating, Blackgrass [6, 16]: 30 | Blackgrass plant response rating [6, 17]: 30 | Blackgrass plant response rating [6, 18]: 5 | Plant response rating, Ryegrass, Italian [7, 19]: 90 | Ryegrass, Italian plant response rating [7, 20]: 100 | Ryegrass, Italian plant response rating [7, 21]: 100 | Plant response rating, Ryegrass, Italian [7, 22]: 100 | Plant response rating, Corn (corn (Zea mays) [8]; [23]): 0 | Corn plant response rating (corn (Zea mays) [8]; [24]): 20 | Plant response rating, Foxtail, Giant [9, 19]: 50 | Foxtail, Giant plant response rating [9, 20]: 50 | Foxtail, Giant plant response rating [9, 21]: 50 | Plant response rating, Foxtail, Giant [9, 22]: 90 | Plant response rating, Wheat [10, 23]: 0 | Wheat plant response rating [10, 24]: 20

CCC(=O)Oc1c(OC)nn(C)c(=O)c1-c1c(C)sc2ccc(Cl)cc12 [Compound 131]
Plant response rating, Corn (corn (Zea mays) [1]; [14]): 0 | Plant response rating, Corn (corn (Zea mays) [1]; [15]): 0 | Plant response rating, Corn (corn (Zea mays) [1]; [16]): 5 | Corn plant response rating (corn (Zea mays) [1]; [17]): 15 | Plant response rating, Waterhemp [2, 14]: 95 | Plant response rating, Waterhemp [2, 15]: 98 | Plant response rating, Waterhemp [2, 16]: 98 | Waterhemp plant response rating [2, 17]: 100 | Plant response rating, Velvetleaf [3, 14]: 0 | Plant response rating, Velvetleaf [3, 15]: 55 | Plant response rating, Velvetleaf [3, 16]: 85 | Velvetleaf plant response rating [3, 17]: 95 | Plant response rating, Soybean (soybean (Glycine max); [14]): 0 | Plant response rating, Soybean (soybean (Glycine max); [15]): 0 | Plant response rating, Soybean (soybean (Glycine max); [16]): 0 | Soybean plant response rating (soybean (Glycine max); [17]): 0 | Plant response rating, Pigweed [4, 14]: 60 | Plant response rating, Pigweed [4, 15]: 100 | Plant response rating, Pigweed [4, 16]: 100 | Pigweed plant response rating [4, 17]: 100 | Plant response rating, Nutsedge, Yellow [5, 14]: 10 | Plant response rating, Nutsedge, Yellow [5, 15]: 35 | Plant response rating, Nutsedge, Yellow [5, 16]: 65 | Nutsedge, Yellow plant response rating [5, 17]: 75 | Plant response rating, Blackgrass [6, 14]: 0 | Plant response rating, Blackgrass [6, 15]: 40 | Plant response rating, Blackgrass [6, 16]: 40 | Blackgrass plant response rating [6, 17]: 90 | Plant response rating, Ryegrass, Italian [7, 19]: 90 | Plant response rating, Ryegrass, Italian [7, 25]: 90 | Ryegrass, Italian plant response rating [7, 21]: 90 | Plant response rating, Ryegrass, Italian [7, 22]: 90 | Plant response rating, Corn (corn (Zea mays) [8]; [23]): 0 | Plant response rating, Corn (corn (Zea mays) [8]; [26]): 10 | Plant response rating, Foxtail, Giant [9, 19]: 50 | Plant response rating, Foxtail, Giant [9, 25]: 80 | Foxtail, Giant plant response rating [9, 21]: 80 | Plant response rating, Foxtail, Giant [9, 22]: 90 | Plant response rating, Wheat [10, 23]: 0 | Plant response rating, Wheat [10, 26]: 20
